Data: US4189604A, “Bestatin” (Zaidan Hojin Biseibutsu Kagaku Kenkyu Kai, priority 1975, dated 1980)
Values after ≈ are worked out from the molar mass of the structure shown. Where two headings read alike, the source gives them in different places. Each block holds one compound with its values, some of them ahead of it.

Experiments:
[1] = target: T1, aminopeptidase B (Rattus norvegicus, UniProt O09175); test: Inhibitory activity against aminopeptidase B; assay type: biochemical; conditions: for IC50: read-out: ID50 (the source's name) (converted); for inhibitory effect relative to Bestatin: compared with Bestatin
T1 construct: aminopeptidase B solution which is prepared by Sephadex 100 chromatography as described by Hopusu et al; from tissue
T1 sequence (O09175 1-650): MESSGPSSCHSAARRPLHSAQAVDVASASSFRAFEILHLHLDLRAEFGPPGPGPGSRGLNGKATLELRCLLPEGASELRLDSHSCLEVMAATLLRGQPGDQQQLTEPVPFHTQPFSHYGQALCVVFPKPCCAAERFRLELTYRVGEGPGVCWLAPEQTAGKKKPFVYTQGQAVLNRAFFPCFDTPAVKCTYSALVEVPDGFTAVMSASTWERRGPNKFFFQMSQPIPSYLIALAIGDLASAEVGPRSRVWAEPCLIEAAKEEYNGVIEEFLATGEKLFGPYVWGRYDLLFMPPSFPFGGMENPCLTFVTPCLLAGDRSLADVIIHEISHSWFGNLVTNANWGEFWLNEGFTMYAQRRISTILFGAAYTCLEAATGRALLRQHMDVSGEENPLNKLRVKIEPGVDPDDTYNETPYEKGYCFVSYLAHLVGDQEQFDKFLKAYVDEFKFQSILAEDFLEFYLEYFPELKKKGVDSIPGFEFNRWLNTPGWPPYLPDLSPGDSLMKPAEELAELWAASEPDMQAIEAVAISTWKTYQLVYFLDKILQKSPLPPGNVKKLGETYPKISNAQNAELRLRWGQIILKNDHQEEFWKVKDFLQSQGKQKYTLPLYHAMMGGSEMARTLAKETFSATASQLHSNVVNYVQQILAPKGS
Procedure: (A) Inhibitory activity against aminopeptidase B Testing method: The method described by […] in Archives of Biochemistry and Biophysics 114, 557, (1966) was modfied. To the mixture of 0.3 ml. of 1 mM arginine β-naphthylamide and 1.0 Ml. of 0.1 M Tris hydrochloride buffer (pH 7.0), 0.7 Ml. of distilled water with or without a test material is added and warmed at 37° C. for 3 minutes. The reaction is started by addition of 0.2 ml. of aminopeptidase B solution which is prepared by Sephadex 100 chromatography as described by Hopusu et al. […] Fifteen minutes at room temperature thereafter, absorbance (a) at 530 nm is measured by spectrophotometer. […] The inhibition percent is calculated as follows: (b-a)/b×100.

[2] = test system: plaque forming cells in the spleen; test: Effect on humoral antibody formation to Sheep Red Blood Cell (SRBC) in mice (JERNE's hemolytic plaque technique); assay type: in vivo, Mice (dd/y female); conditions: for Antibody Forming Cells Number / Antibody Forming Cells Treated Group / Non-treated Group: intraperitoneal, four days
Procedure: The compound of Example 28 was also tested for its humoral antibody formation to find its efficacy as an immunizing cancer inhibitor. […] For the humoral antibody formation of Bestatin per se see J. Antibiotics, 29(8), 857-859 (August, 1976).
The effect of (2RS,3RS)-3-amino-2-hydroxy-4-hydroxyphenylbutanoyl-(S)-leucine on humoral antibody formation to Sheep Red Blood Cell (SRBC) in mice was studied as follows.
Mice (dd/y female) were immunized by intravenous injection of 10^8 SRBC. Intraperitoneal injection of (2RS,3RS)-3-amino-2-hydroxy-4-hydroxyphenylbutanoyl-(S)-leucine was made soon afterwards.
Four days thereafter the number of plaque forming cells in the spleen were enumerated by JERNE's hemolytic plaque technique [Jerne, N. K.; A. A. Nordin & C. Henry: "The Agar Plaque Technique for Recognizing Antibody-producing Cells" in cell-bound antibodies (Wistar Institute Press, Philadelphia, 1963), pp. 109-122].

[3] = Biological Testing table after Example 29
[4] = pH 7.0, 37° C., 30 minutes, Table 1

IC50 [1, 3]: 308 nM
Structure (SMILES): CC(C)C[C@H](NC(=O)C(O)C(N)Cc1ccc(O)cc1)C(=O)O (stereo partly drawn) [Example 28, (2RS,3RS)-3-amino-2-hydroxy-4-p-hydroxyphenylbutanoyl-(S)-leucine]
inhibitory effect relative to Bestatin [1]: substantially the same inhibitory effects as Bestatin | number of antibody forming cells relative to non-treated mice ([2]; 1 mcg.): 1.41 times | number of antibody forming cells relative to non-treated mice ([2]; 10 mcg.): 1.66 times | Antibody Forming Cells Number ([2]; dose 1 mg.): 207,400±8,025 | Antibody Forming Cells Treated Group / Non-treated Group ([2]; dose 1 mg.): 1.66 | Antibody Forming Cells Number ([2]; dose 0.1 mcg.): 141,000±5,700 | Antibody Forming Cells Treated Group / Non-treated Group ([2]; dose 0.1 mcg.): 1.13 | Antibody Forming Cells Number ([2]; dose 1 mcg.): 175,800±8,200 | Antibody Forming Cells Treated Group / Non-treated Group ([2]; dose 1 mcg.): 1.41 | Antibody Forming Cells Number ([2]; dose 10 mcg.): 208,000±7,180 | Antibody Forming Cells Treated Group / Non-treated Group ([2]; dose 10 mcg.): 1.66 | Antibody Forming Cells Number ([2]; dose 100 mcg.): 261,000±11,700 | Antibody Forming Cells Treated Group / Non-treated Group ([2]; dose 100 mcg.): 2.09 | number of humoral antibody (forming) cells ([2]; in words): increasing the number of humoral antibody cells to a considerable degree | number of nonspecific antibody forming cells ([2]; in words): did not increase the weight of the spleen or the number of nonspecific antibody forming cells | weight of the spleen ([2]; in words): did not increase the weight of the spleen | number of humoral antibody (forming) cells ([2]; in words, listed as (2RS,3RS)-3-amino-2-hydroxy-4-hydroxybutanoyl-(S)-leucine): excellent effect of increasing the number of antibody forming cells

IC50 [1, 3]: 21.6 nM | inhibitory effect relative to Bestatin [1]: one-fourteenth of Bestatin
Structure (SMILES): CC(C)C[C@H](NC(=O)[C@@H](O)[C@H](N)Cc1ccc(O)cc1)C(=O)O [Example 29, (2S,3R)-3-amino-2-hydroxy-4-p-hydroxyphenylbutanoyl-(S)-leucine]

ID50 [1, 4]: 1.25 µg/mL (≈ 4.05 µM)
Structure (SMILES): CC(C)C[C@H](NC(=O)[C@@H](O)[C@@H](N)Cc1ccccc1)C(=O)O [No. 2, (2S,3S)-3-amino-2-hydroxy-4-phenylbutanoyl-(S)-leucine]

ID50 [1, 4]: 0.56 µg/mL (≈ 1.82 µM)
Structure (SMILES): CC(C)C[C@@H](NC(=O)[C@@H](O)[C@H](N)Cc1ccccc1)C(=O)O [No. 3, (2S,3R)-3-amino-2-hydroxy-4-phenylbutanoyl-(R)-leucine]

IC50 [1, 4]: 130 nM
Structure (SMILES): CC(C)C[C@@H](NC(=O)[C@@H](O)[C@@H](N)Cc1ccccc1)C(=O)O [No. 4, (2S,3S)-3-amino-2-hydroxy-4-phenylbutanoyl-(R)-leucine]

ID50 [1, 4]: 21.5 µg/mL (≈ 85.2 µM)
Structure (SMILES): N[C@H](Cc1ccccc1)[C@H](O)C(=O)NCC(=O)O [No. 5, (2S,3R)-3-amino-2-hydroxy-4-phenylbutanoyl-glycine]

IC50 [1, 4]: 162 nM
Structure (SMILES): CC[C@H](C)[C@H](NC(=O)[C@@H](O)[C@H](N)Cc1ccccc1)C(=O)O [No. 7, (2S,3R)-3-amino-2-hydroxy-4-phenylbutanoyl-(S)-isoleucine]

ID50 [1, 4]: 0.22 µg/mL (≈ 0.674 µM)
Structure (SMILES): CSCC[C@H](NC(=O)[C@@H](O)[C@H](N)Cc1ccccc1)C(=O)O [No. 8, (2S,3R)-3-amino-2-hydroxy-4-phenylbutanoyl-(S)-methionine]

ID50 [1, 4]: 1.2 µg/mL (≈ 3.71 µM)
Structure (SMILES): NC(=O)CC[C@H](NC(=O)[C@@H](O)[C@H](N)Cc1ccccc1)C(=O)O [No. 9, (2S,3R)-3-amino-2-hydroxy-4-phenylbutanoyl-(S)-glutamine]

ID50 [1, 4]: 0.13 µg/mL (≈ 0.422 µM)
Structure (SMILES): CCCC[C@H](NC(=O)[C@@H](O)[C@H](N)Cc1ccccc1)C(=O)O [No. 11, (2S,3R)-3-amino-2-hydroxy-4-phenylbutanoyl-(S)-norleucine]

ID50 [1, 4]: 4.2 µg/mL (≈ 12.3 µM)
Structure (SMILES): N[C@H](Cc1ccccc1)[C@H](O)C(=O)N[C@@H](Cc1ccccc1)C(=O)O [No. 12, (2S,3R)-3-amino-2-hydroxy-4-phenylbutanoyl-(S)-phenylalanine]

IC50 [1, 4]: 2550 nM
Structure (SMILES): N[C@H](Cc1ccccc1)[C@H](O)C(=O)N[C@@H](CO)C(=O)O [No. 13, (2S,3R)-3-amino-2-hydroxy-4-phenylbutanoyl-(S)-serine]

ID50 [1, 4]: 25 µg/mL (≈ 77.1 µM)
Structure (SMILES): N[C@H](Cc1ccccc1)[C@H](O)C(=O)N[C@@H](CCC(=O)O)C(=O)O [No. 14, (2S,3R)-3-amino-2-hydroxy-4-phenylbutanoyl-(S)-glutamic acid]

ID50 [1, 4]: 3.1 µg/mL (≈ 9.21 µM)
Structure (SMILES): CCCCCCC(NC(=O)[C@@H](O)[C@H](N)Cc1ccccc1)C(=O)O (stereo partly drawn) [No. 15, (2S,3R)-3-amino-2-hydroxy-4-phenylbutanoyl-(RS)-2-aminooctanoic acid]

ID50 [1, 4]: 16 µg/mL (≈ 68.9 µM)
Structure (SMILES): CC(C)C[C@H](NC(=O)C(O)[C@@H](C)N)C(=O)O (some centres unmarked) [No. 16]

ID50 [1, 4]: 12 µg/mL (≈ 43.7 µM)
Structure (SMILES): CC(C)C[C@H](NC(=O)C(O)[C@H](N)CC(C)C)C(=O)O (stereo partly drawn) [No. 17, (2RS,3R)-30 amino-2-hydroxy-5-methylhexanoyl-(S)-leucine]

ID50 [1, 4]: 56 µg/mL (≈ 190 µM)
Structure (SMILES): CC(C)C[C@H](NC(=O)C(O)[C@H](N)c1ccccc1)C(=O)O (stereo partly drawn) [No. 18, (2RS,3R)-3-amino-2-hydroxy-3-phenylpropionyl-(S)-leucine]

Structure (SMILES): CC(C)C[C@H](NC(=O)C(O)C(N)Cc1ccc(Cl)cc1)C(=O)O (stereo partly drawn) [No. 19, (2RS,3RS)-3-amino-2-hydroxy-4-p-chlorophenylbutanoyl-(S)-leucine]
number of antibody forming cells compared with non-treated group ([2]; 10 mcg., in words): nearly equal to that of non-treated group | Antibody Forming Cells Number ([2]; dose 1 mg.): 208,750±8,000 | Antibody Forming Cells Treated Group / Non-treated Group ([2]; dose 1 mg.): 1.67 | Antibody Forming Cells Number ([2]; dose 10 mcg.): 133,750±5,600 | Antibody Forming Cells Treated Group / Non-treated Group ([2]; dose 10 mcg.): 1.07

ID50 [1, 4]: 0.01 µg/mL (≈ 0.031 µM)
Structure (SMILES): Cc1ccc(CC(N)C(O)C(=O)N[C@@H](CC(C)C)C(=O)O)cc1 (stereo partly drawn) [No. 21, (2RS,3RS)-3-amino-2-hydroxy-4-p-methylphenylbutanoyl-(S)-leucine]

ID50 [1, 4]: 0.01 µg/mL (≈ 0.0283 µM)
Structure (SMILES): CC(C)C[C@H](NC(=O)[C@@H](O)[C@H](N)Cc1ccc([N+](=O)[O-])cc1)C(=O)O [No. 22, (2S,3R)-3-amino-2-hydroxy-4-p-nitrophenylbutanoyl-(S)-leucine]

ID50 [1, 4]: 0.10 µg/mL (≈ 0.309 µM)
Structure (SMILES): CC(C)C[C@H](NC(=O)[C@@H](O)[C@H](N)Cc1ccc(N)cc1)C(=O)O [No. 23, (2S,3R)-3-amino-2-hydroxy-4-p-aminophenylbutanoyl-(S)-leucine]

IC50 [1, 4]: 3340 nM
Structure (SMILES): CC(C)C[C@H](NC(=O)[C@@H](O)[C@H](N)CC1CCCCC1)C(=O)O [No. 24, (2S,3R)-3-amino-2-hydroxy-4-cyclohexylbutanoyl-(S)-leucine]
